Laboratory results as given in patent US7122570B2, “Tetrahydrocarbazol derivatives as ligands for G-protein-coupled receptors (GPCR)” (Zentaris AG, priority 2001, dated 2006).

How the values were obtained:
[1] = biological target: T1, GnRH receptor (Homo sapiens, UniProt P30968); assay: Ca2+ release, human; assay type: cell-based; settings: read-out: Ca^2+ Release Human IC50
T1 sequence (P30968 1-328): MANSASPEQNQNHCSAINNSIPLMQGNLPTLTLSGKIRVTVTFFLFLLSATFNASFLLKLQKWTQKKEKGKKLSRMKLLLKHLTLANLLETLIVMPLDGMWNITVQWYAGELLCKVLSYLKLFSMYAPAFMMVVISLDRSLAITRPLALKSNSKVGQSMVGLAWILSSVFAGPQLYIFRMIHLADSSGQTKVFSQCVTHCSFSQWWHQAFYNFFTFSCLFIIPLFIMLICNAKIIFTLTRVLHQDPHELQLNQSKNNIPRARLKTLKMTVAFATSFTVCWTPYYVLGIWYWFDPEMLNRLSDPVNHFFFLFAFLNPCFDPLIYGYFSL

[2] = biological target: T2, hGnRH-Receptor (Homo sapiens, UniProt P30968); assay: GnRH receptor assay: competition binding with 125I-labeled buserelin on cell membranes; settings: competition with 125I-buserelin
T2 construct: expressed in transfected cells; host or cells: CHO-3 cells (Schmid et al., J. Biol. Chem. 275 (2000), 9193-9200), membrane preparation
T2 sequence (P30968 1-328): T1 sequence (P30968 1-328)
Protocol: Buserelin is ordered from Welding (Frankfurt/Main, Germany). The compound is labeled with ^125I by use of the chloramine T-method and Na^125I (4000 Ci/mmol; Amersham-Buchler, Brunswick, Germany). The labeled substance is purified by reverse phase HPLC on a Spherisorb ODS II column (250×4 mm, particle size 3 μm) by elution with 50% acetonitrile/0.15% trifluoroacetic acid at a flow rate of 0.5 ml/minute. The specific activity is 2000 Ci/mmol.
Alpha T3-1 cells (Bilezikjian et al., Mol. Endocrinol 5 (1991), 347–355) are cultivated in DMEM medium (Gibco-BRL, Eggenstein-Leopoldshafen, Germany) with penicillin (100 I.U./ml), streptomycin (0.1 mg/ml) and glutamine (0.01 mol/l) and 10% fetal calf serum (FCS; PAA Laboratories, Coelbe, Germany) on plastic tissue culture plates (Nunc, 245×245×20 mm). CHO-3 cells (Schmid et al., J. Biol. Chem. 275 (2000), 9193–9200) are cultivated under identical conditions, apart from the fact that Ham's F12 medium (Gibco-BRL) is used.
Ten confluent cell culture plates are flushed twice with 50 ml of phosphate-buffered salt solution (PBS). The cells are harvested by scraping them off with a rubber scraper in 5 ml of PBS and sedimented by centrifuging in a laboratory centrifuge (Heraeus) at 800 rpm for 10 minutes. The cell pellet is resuspended in 5 ml of 0.25 mol/l of saccharose/0.01 mol/l of triethanolamine, pH 7.4. The cells are lysed by three cycles of freezing in dry ice/ethanol bath and thawing at room temperature. The lysate is centrifuged at 900 rpm for 10 minutes, and the sediment is discarded. The supernatant is centrifuged at 18,000 rpm in a Sorvall SS34 rotor for 30 minutes. The pellet (cell membranes) is suspended by Potters in 5 ml of assay buffer (0.25 mol/l of saccharose, 0.01 mol/l of triethanolamine, pH 7.5, 1 mg/ml of ovalbumin) and stored in 200 μl of aliquots at −20° C. The determination of protein is carried out according to the Bradford method (Anal. Biochem. 72 (1976), 248–254).
Binding studies for competition curves are performed as triplicates. A test sample contains 60 μl of cell membrane suspension (10 μg of protein for αT3-1 cells or 40 μg of protein for CHO3 cells), 20 μl of ^125I-labeled buserelin (100,000 Ipm per sample for competition curves and between 1,500 and 200,000 Ipm for saturation experiments) and 20 μl of test buffer or test compound solution. The test compounds are dissolved in distilled water or 50% ethanol. Serial dilutions (5×10^−6 mol/l to […]) are produced in test buffer. The unspecific binding is determined in the presence of excess unlabeled buserelin (10^−6 mol/1). The test samples are incubated for 30 minutes at room temperature. Bonded and free ligands are separated by filtration (Whatman GF/C-filter, 2.5 cm diameter) with use of an Amicon 10x collecting device and washed twice with 5 ml of 0.02 mol/l of Tris/HCl, pH 7.4. The filters are moistened with 0.3% polyethylenimine (Serva; Heidelberg, Germany) for 30 minutes to reduce the unspecific binding. The radioactivity that was held up by the filter is determined in a 5-channel gamma-counter (Wallac-LKB 1470 Wizard).
In the table below, the IC50 values that are obtained for the preferred compounds, as defined above, are indicated.

SMILES | IC50 [1] [µM] | IC50 [2] [µM]
CC(C)C(NC(=O)C1(NC(=O)C(Cc2ccccc2)c2ccccc2)CCc2[nH]c3ccccc3c2C1)C(=O)NC(CC(N)=O)C(N)=O [Compound 18, N-[[(3R)-2,3,4,9-Tetrahydro-3-[(1-oxo-2,3-diphenyl-propyl)amino]-1H-carbaol-3-yl]-carbonyl]-L-valyl-L-aspartamide] | 5 | 0.9
CC[C@H](C)[C@H](NC(=O)CCc1ccccc1)C(=O)N[C@]1(C(=O)N[C@H](C(=O)N[C@@H](CC(N)=O)C(N)=O)C(C)C)CCc2[nH]c3ccccc3c2C1 [Compound 22, N-[[(3R)-2,3,4,9-Tetrahydro-3-[[(2S,3S)-3-methyl-1-oxo-2-[(1-oxo-3-phenylpropyl)amino]-pentyl]amino]-1H-carbazol-3-yl]carbonyl]-L-valyl-L-aspartamide] | 1 | 2
CC[C@H](C)[C@H](NC(=O)OCc1ccccc1)C(=O)N[C@]1(C(=O)N[C@H](C(=O)Nc2ccc(C(N)=O)cc2)C(C)C)CCc2[nH]c3ccccc3c2C1 [Compound 45, Phenylmethyl [(1S,2S)-1-[[[(3R)-3-[[[(1S)-1-[[[4-(aminocarbonyl)phenyl]amino]carbonyl]-2-methylpropyl]amino]carbonyl]-2,3,4,9-tetrahydro-1H-carbazol-3-yl]amino]carbonyl]-2-methylbutyl]carbamate] | 1 | 0.3
CC[C@H](C)[C@H](NC(=O)OCc1ccccc1)C(=O)N[C@]1(C(=O)N[C@H](C(N)=O)C(C)C)CCc2[nH]c3ccccc3c2C1 [Compound 58, Phenylmethyl [(1S,2S)-1-[[[(3R)-3-[[[(1S)-1-(aminocarbonyl)-2-methylpropyl]amino]-carbonyl]-2,3,4,9-tetrahydro-1H-carbazol-3-yl]-amino]carbonyl]-2-methylbutyl]carbamate] | 0.37 | 0.3
CC[C@H](C)[C@H](NC(=O)[C@@]1(NC(=O)[C@@H](NC(=O)OCc2ccccc2)[C@@H](C)CC)CCc2[nH]c3ccccc3c2C1)C(N)=O [Compound 64, Phenylmethyl [(1S,2S)-1-[[[(3R)-3-[[[(1S,2S)-1-(aminocarbonyl)-2-methylbutyl]amino]-carbonyl]-2,3,4,9-tetrahydro-1H-carbazol-3-yl]-amino]carbonyl]-2-methylbutyl]carbamate] | 1.5 | 1.7
CC(C)[C@H](NC(=O)[C@@]1(NC(=O)Cc2ccc(F)cc2)CCc2[nH]c3ccccc3c2C1)C(N)=O [Compound 91, (3R)-N-[(1S)-1-(Aminocarbonyl)-2-methyl-propyl]-3-[[(4-fluorophenyl)acetyl]amino]-2,3,4,9-tetrahydro-1H-carbazole-3-carboxamide] | 2 | 2.4
CC(C)[C@H](NC(=O)[C@@]1(NC(=O)Cc2cccc(Br)c2)CCc2[nH]c3ccccc3c2C1)C(N)=O [Compound 96, (3R)-N-[(1S)-1-(Aminocarbonyl)-2-methyl-propyl]-3-[[(3-bromophenyl)acetyl]-amino]-2,3,4,9-tetrahydro-1H-carbazole-3-carboxamide] | 3 | 4
CC[C@H](C)[C@H](NC(=O)OCc1ccccc1)C(=O)N[C@]1(C(=O)N[C@H](C(N)=O)C(C)C)CCc2[nH]c3c(OC)cccc3c2C1 [Compound 147a, Phenylmethyl [(1S,2S)-1-[[[(3R)-3-[[[(1S)-1-(aminocarbonyl)-2-methypropyl]amino]-carbonyl]-2,3,4,9-tetrahydro-8-methoxy-1H-carbazol-3-yl]amino]carbonyl]-2-methylbutyl]carbamate] | 0.25 | 0.076
CC[C@H](C)[C@H](NC(=O)OCc1ccccc1)C(=O)N[C@]1(C(=O)N[C@H](C(N)=O)C(C)C)CCc2[nH]c3ccc(Cl)cc3c2C1 [Compound 148a, Phenylmethyl [(1S,2S)-1-[[[(3R)-3-[[[(1S)-1-(aminocarbonyl)-2-methylpropyl]amino]-carbonyl]-6-chloro-2,3,4,9-tetrahydro-1H-carbazol-3-yl]amino]carbonyl]-2-methylbutyl]carbamate] | 0.14 | 0.08
CC[C@H](C)[C@H](NC(=O)OCc1ccccc1)C(=O)N[C@]1(C(=O)N[C@H](C(N)=O)C(C)C)CCc2[nH]c3c(C)cccc3c2C1 [Compound 150a, Phenylmethyl [(1S,2S)-1-[[[(3R)-3-[[[(1S)-1-(aminocarbonyl)-2-methylpropyl]amino]-carbonyl]-2,3,4,9-tetrahydro-8-methyl-1H-carbazol-3-yl]amino]carbonyl]-2-methylbutyl]carbamate] | 0.28 | 0.11
CC(C)C(NC(=O)C1(NC(=O)Cc2ccc3ccccc3c2)CCc2[nH]c3ccccc3c2C1)C(N)=O [Compound 161b, (3S)-N-[(1S)-1-(Aminocarbonyl)-2-methyl-propyl]-2,3,4,9-tetrahydro-3-[(2-naphthalenyl-acetyl)amino]-1H-carbazole-3-carboxamide] | 3.6 | 3.7
CC(C)[C@H](NC(=O)[C@]1(NC(=O)Cc2c[nH]c3ccccc23)CCc2[nH]c3ccccc3c2C1)C(N)=O [Compound 164b, (3S)-N-[(1S)-1-(Aminocarbonyl)-2-methyl-propyl]-2,3,4,9-tetrahydro-3-[(1H-indol-3-yl-acetyl)amino]-1H-carbazole-3-carboxamide] | 6.5 | 6
CC(C)[C@H](NC(=O)[C@@]1(NC(=O)Cc2ccc(Cl)cc2)CCc2[nH]c3ccccc3c2C1)C(N)=O [Compound 167a, (3R)-N-[(1S)-1-(Aminocarbonyl)-2-methyl-propyl]-3-[[(4-chlorophenyl)acetyl]amino]-2,3,4,9-tetrahydro-1H-carbazole-3-carboxamide] | 2.6 | 1
COc1ccc(CC(=O)NC2(C(=O)N[C@H](C(N)=O)C(C)C)CCc3[nH]c4ccccc4c3C2)cc1 (stereo partly drawn) [Compound 175, N-[(1S)-1-(Aminocarbonyl)-2-methylpropyl]-2,3,4,9-tetrahydro-3-[[(4-methoxyphenyl)-acetyl]amino]-1H-carbazole-3-carboxamide] | 1.8 | 8
CC[C@H](C)[C@H](NC(=O)OCc1ccccc1)C(=O)N[C@]1(C(=O)N2CCC[C@H]2C(N)=O)CCc2[nH]c3ccccc3c2C1 [Compound 181a, Phenylmethyl [(1S,2S)-1-[[[(3R)-3-[[(2S)-2-(aminocarbonyl)-1-pyrrolidinyl]carbonyl]-2,3,4,9-tetrahydro-1H-carbazol-3-yl]amino]-carbonyl]-2-methylbutyl]carbamate] | 3 | 0.7
CC[C@H](C)[C@H](NC(=O)OCc1ccccc1)C(=O)N[C@]1(C(=O)N[C@H](C(N)=O)C(C)C)CCc2[nH]c3c(Cl)cc(Cl)cc3c2C1 [Compound 184a, Phenylmethyl [(1S,2S)-1-[[[(3R)-3-[[[(1S)-1-(aminocarbonyl)-2-methylpropyl]amino]-carbonyl]-6,8-dichloro-2,3,4,9-tetrahydro-1H-carbazol-3-yl]amino]carbonyl]-2-methylbutyl]-carbamate] | 0.045 | 0.015
